Several values for one entry are separate records, joined by “and”; a condition that tells them apart may be missing. Identical values can stand only once. Inconclusive results are not listed. Residues, ends and D or L forms follow the SMILES beside them. *: point of attachment. Trt = c1ccc(C(c2ccccc2)(c2ccccc2)*)cc1; Cbz = O=C(OCc1ccccc1)*; Bn = c1ccc(C*)cc1; βAla = NCCC(=O)O
System: Lewis lung carcinoma i.m., BDF1 mice, T/C %
Test: NCI In Vivo Anticancer Drug Screen. Data for tumor model Lewis Lung Carcinoma (intramuscular) in B6D2F1 (BDF1) mice
Summary of the method: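 Value is the ratio of a treated-group measurement (T) to the matching vehicle-control measurement (C), using either survival or tumour size in mice bearing transplanted tumours.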

CCCCCCCCCCCCCCCC(=O)OCC1OC(n2ccc(N)nc2=O)C(O)C1O (configuration not stated)
T/C (endpoint: mean tumor weight (est.), dose: 7.5 mg/kg/injection, schedule: Q01DX009 (ip), vehicle: saline, higher = larger tumour): 76 % of control
T/C (endpoint: mean tumor weight (est.), dose: 15.0 mg/kg/injection, schedule: Q01DX009 (ip), vehicle: saline, higher = larger tumour): 39 % of control
T/C (endpoint: mean tumor weight (est.), dose: 25.0 mg/kg/injection, schedule: Q04DX003 (ip), vehicle: saline, higher = larger tumour): 67 % of control
T/C (endpoint: mean tumor weight (est.), dose: 37.5 mg/kg/injection, schedule: Q01DX001 (ip), vehicle: saline, higher = larger tumour): 45 % of control
T/C (endpoint: mean tumor weight (est.), dose: 50.0 mg/kg/injection, schedule: Q04DX003 (ip), vehicle: saline, higher = larger tumour): 19 % of control
T/C (endpoint: mean tumor weight (est.), dose: 75.0 mg/kg/injection, schedule: Q01DX001 (ip), vehicle: saline, higher = larger tumour): 19 % of control
T/C (endpoint: mean tumor weight (est.), dose: 150.0 mg/kg/injection, schedule: Q01DX001 (ip), vehicle: saline, higher = larger tumour): 46 % of control
T/C (endpoint: median survival time, dose: 37.5 mg/kg/injection, schedule: Q01DX001 (ip), vehicle: saline, higher = longer survival): 93 % of control
T/C (endpoint: median survival time, dose: 150.0 mg/kg/injection, schedule: Q01DX001 (ip), vehicle: saline, higher = longer survival): 113 % of control

OC(CBr)C(O)C(O)C(O)CBr (configuration not stated)
T/C (endpoint: mean tumor weight (est.), dose: 50.0 mg/kg/injection, schedule: Q01DX011 (ip), vehicle: Klucel (hydroxypropylcellulose) (HPC), higher = larger tumour): 61 % of control
T/C (endpoint: mean tumor weight (est.), dose: 100.0 mg/kg/injection, schedule: Q01DX011 (ip), vehicle: Klucel (hydroxypropylcellulose) (HPC), higher = larger tumour): 59 % of control
T/C (endpoint: mean tumor weight (est.), dose: 200.0 mg/kg/injection, schedule: Q01DX011 (ip), vehicle: Klucel (hydroxypropylcellulose) (HPC), higher = larger tumour): 44 % of control
T/C (endpoint: mean tumor weight, dose: 25.0 mg/kg/injection, schedule: Q01DX011 (ip), vehicle: Klucel (hydroxypropylcellulose) (HPC), higher = larger tumour): 85 % of control
T/C (endpoint: mean tumor weight, dose: 50.0 mg/kg/injection, schedule: Q01DX011 (ip), vehicle: Klucel (hydroxypropylcellulose) (HPC), higher = larger tumour): 70 % of control
T/C (endpoint: mean tumor weight, dose: 100.0 mg/kg/injection, schedule: Q01DX011 (ip), vehicle: Klucel (hydroxypropylcellulose) (HPC), higher = larger tumour): 93 % of control
T/C (endpoint: mean tumor weight, dose: 125.0 mg/kg/injection, schedule: Q01DX011 (ip), vehicle: Klucel (hydroxypropylcellulose) (HPC), higher = larger tumour): 101 % of control
T/C (endpoint: mean tumor weight, dose: 200.0 mg/kg/injection, schedule: Q01DX011 (ip), vehicle: Klucel (hydroxypropylcellulose) (HPC), higher = larger tumour): 72 % of control
T/C (endpoint: mean tumor weight, dose: 250.0 mg/kg/injection, schedule: Q01DX011 (ip), vehicle: Klucel (hydroxypropylcellulose) (HPC), higher = larger tumour): 100 % of control
T/C (endpoint: mean tumor weight, dose: 400.0 mg/kg/injection, schedule: Q01DX011 (ip), vehicle: Klucel (hydroxypropylcellulose) (HPC), higher = larger tumour): 55 % of control
T/C (endpoint: median survival time, dose: 25.0 mg/kg/injection, schedule: Q01DX011 (ip), vehicle: Klucel (hydroxypropylcellulose) (HPC), higher = longer survival): 94 % of control
T/C (endpoint: median survival time, dose: 50.0 mg/kg/injection, schedule: Q01DX011 (ip), vehicle: Klucel (hydroxypropylcellulose) (HPC), higher = longer survival): 111 % of control
T/C (endpoint: median survival time, dose: 125.0 mg/kg/injection, schedule: Q01DX011 (ip), vehicle: Klucel (hydroxypropylcellulose) (HPC), higher = longer survival): 93 % of control
T/C (endpoint: median survival time, dose: 200.0 mg/kg/injection, schedule: Q01DX011 (ip), vehicle: Klucel (hydroxypropylcellulose) (HPC), higher = longer survival): 97 % of control and 112 % of control
T/C (endpoint: median survival time, dose: 250.0 mg/kg/injection, schedule: Q01DX011 (ip), vehicle: Klucel (hydroxypropylcellulose) (HPC), higher = longer survival): 100 % of control
T/C (endpoint: median survival time, dose: 400.0 mg/kg/injection, schedule: Q01DX011 (ip), vehicle: Klucel (hydroxypropylcellulose) (HPC), higher = longer survival): 94 % of control

CN1C=c2c3c(ccc2=C2C=CC4C=C5OCOC5=CC4=C21)OCO3 (configuration not stated)
T/C (endpoint: mean tumor weight (est.), dose: 7.5 mg/kg/injection, schedule: Q01DX011 (ip), vehicle: saline with Tween-80, higher = larger tumour): 78 % of control
T/C (endpoint: mean tumor weight (est.), dose: 15.0 mg/kg/injection, schedule: Q01DX011 (ip), vehicle: saline with Tween-80, higher = larger tumour): 51 % of control
T/C (endpoint: median survival time, dose: 7.5 mg/kg/injection, schedule: Q01DX011 (ip), vehicle: saline with Tween-80, higher = longer survival): 122 % of control
T/C (endpoint: median survival time, dose: 15.0 mg/kg/injection, schedule: Q01DX011 (ip), vehicle: saline with Tween-80, higher = longer survival): 100 % of control

NC(Cc1ccc(N(CCCl)CCCl)cc1)C(=O)O (configuration not stated)
T/C (endpoint: mean tumor weight, dose: 1.0 mg/kg/injection, schedule: Q01DX011 (ip), vehicle: Klucel (hydroxypropylcellulose) (HPC), higher = larger tumour): 76 % of control
T/C (endpoint: mean tumor weight, dose: 2.0 mg/kg/injection, schedule: Q01DX011 (ip), vehicle: Klucel (hydroxypropylcellulose) (HPC), higher = larger tumour): 99 % of control
T/C (endpoint: mean tumor weight, dose: 4.0 mg/kg/injection, schedule: Q01DX011 (ip), vehicle: Klucel (hydroxypropylcellulose) (HPC), higher = larger tumour): 52 % of control
T/C (endpoint: median survival time, dose: 1.0 mg/kg/injection, schedule: Q01DX011 (ip), vehicle: Klucel (hydroxypropylcellulose) (HPC), higher = longer survival): 110 % of control
T/C (endpoint: median survival time, dose: 2.0 mg/kg/injection, schedule: Q01DX011 (ip), vehicle: Klucel (hydroxypropylcellulose) (HPC), higher = longer survival): 102 % of control

COC(=O)C(CSC(c1ccccc1)(c1ccccc1)c1ccccc1)NC(=O)C(CSCc1ccccc1)NC(=O)CCNC(=O)OCc1ccccc1 (configuration not stated) ({Cbz-βAla}-Cys(Bn)-Cys(Trt)-OMe; configuration not given here)
T/C (endpoint: median survival time, dose: 4.0 mg/kg/injection, schedule: Q01DX009 (ip), vehicle: Klucel (hydroxypropylcellulose) (HPC), higher = longer survival): 121 % of control
T/C (endpoint: median survival time, dose: 32.0 mg/kg/injection, schedule: Q01DX009 (ip), vehicle: Klucel (hydroxypropylcellulose) (HPC), higher = longer survival): 171 % of control
T/C (endpoint: median survival time, dose: 64.0 mg/kg/injection, schedule: Q01DX009 (ip), vehicle: Klucel (hydroxypropylcellulose) (HPC), higher = longer survival): 161 % of control

Source: PubChem BioAssay AID272 (DTP/NCI, 2004)
